# Reference: ChEMBL document CHEMBL4715901, “Degradation of Signal Transducer and Activator of Transcription Proteins in Cancer Therapeutics” (ACS Med Chem Lett, 2021)
# What was measured:
# [1] = target: Protein cereblon/Signal transducer and activator of transcription 3 (Homo sapiens, UniProt P40763+Q96SW2); test: Protac activity at E3 ubiquitin ligase/STAT3 in human MOLM-16 cells assessed as degradation of STAT3 incubated for 4 hrs by fluorescent immunoblotting analysis; assay type: cell-based
# [2] = target: Protein cereblon/Signal transducer and activator of transcription 1-alpha/beta (Homo sapiens, UniProt P42224+Q96SW2); test: Protac activity at E3 ubiquitin ligase/STAT1 in human MOLM-16 cells assessed as degradation of STAT1 incubated for 4 hrs by fluorescent immunoblotting analysis; assay type: cell-based
# Sequence of Protein cereblon/Signal transducer and activator of transcription 1-alpha/beta (P42224 whole entry): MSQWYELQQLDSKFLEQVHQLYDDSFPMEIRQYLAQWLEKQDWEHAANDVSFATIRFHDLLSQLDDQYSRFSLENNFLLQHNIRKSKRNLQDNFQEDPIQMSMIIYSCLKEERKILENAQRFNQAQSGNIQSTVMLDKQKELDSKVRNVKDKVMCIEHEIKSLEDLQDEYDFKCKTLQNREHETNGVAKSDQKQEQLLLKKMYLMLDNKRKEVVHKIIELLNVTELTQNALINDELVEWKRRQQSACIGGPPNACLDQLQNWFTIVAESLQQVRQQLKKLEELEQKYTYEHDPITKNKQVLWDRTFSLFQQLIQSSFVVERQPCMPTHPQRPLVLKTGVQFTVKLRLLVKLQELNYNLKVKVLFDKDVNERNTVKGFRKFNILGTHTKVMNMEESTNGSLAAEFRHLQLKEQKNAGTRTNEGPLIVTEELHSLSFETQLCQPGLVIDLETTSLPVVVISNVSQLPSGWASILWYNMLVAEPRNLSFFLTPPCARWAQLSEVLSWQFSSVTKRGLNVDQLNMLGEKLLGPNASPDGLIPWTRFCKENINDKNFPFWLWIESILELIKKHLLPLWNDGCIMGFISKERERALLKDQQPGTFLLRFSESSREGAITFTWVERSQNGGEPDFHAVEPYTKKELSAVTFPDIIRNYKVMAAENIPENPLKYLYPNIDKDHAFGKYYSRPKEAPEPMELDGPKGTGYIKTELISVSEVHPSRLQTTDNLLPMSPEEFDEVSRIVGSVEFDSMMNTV
# Sequence of Protein cereblon/Signal transducer and activator of transcription 1-alpha/beta (Q96SW2 whole entry): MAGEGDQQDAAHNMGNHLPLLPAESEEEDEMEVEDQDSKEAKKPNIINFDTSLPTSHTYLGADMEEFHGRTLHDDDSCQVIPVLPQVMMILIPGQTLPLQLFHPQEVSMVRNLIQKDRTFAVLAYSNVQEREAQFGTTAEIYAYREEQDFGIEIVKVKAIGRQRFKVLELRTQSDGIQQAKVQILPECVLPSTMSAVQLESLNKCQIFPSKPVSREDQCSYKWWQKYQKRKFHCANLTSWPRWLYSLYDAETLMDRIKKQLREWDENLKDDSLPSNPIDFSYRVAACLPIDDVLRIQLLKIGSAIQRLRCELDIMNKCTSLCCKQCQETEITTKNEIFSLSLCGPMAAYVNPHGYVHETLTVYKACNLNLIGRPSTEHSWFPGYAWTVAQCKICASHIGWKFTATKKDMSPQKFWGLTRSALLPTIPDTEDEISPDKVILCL
# Sequence of Protein cereblon/Signal transducer and activator of transcription 3 (P40763 whole entry): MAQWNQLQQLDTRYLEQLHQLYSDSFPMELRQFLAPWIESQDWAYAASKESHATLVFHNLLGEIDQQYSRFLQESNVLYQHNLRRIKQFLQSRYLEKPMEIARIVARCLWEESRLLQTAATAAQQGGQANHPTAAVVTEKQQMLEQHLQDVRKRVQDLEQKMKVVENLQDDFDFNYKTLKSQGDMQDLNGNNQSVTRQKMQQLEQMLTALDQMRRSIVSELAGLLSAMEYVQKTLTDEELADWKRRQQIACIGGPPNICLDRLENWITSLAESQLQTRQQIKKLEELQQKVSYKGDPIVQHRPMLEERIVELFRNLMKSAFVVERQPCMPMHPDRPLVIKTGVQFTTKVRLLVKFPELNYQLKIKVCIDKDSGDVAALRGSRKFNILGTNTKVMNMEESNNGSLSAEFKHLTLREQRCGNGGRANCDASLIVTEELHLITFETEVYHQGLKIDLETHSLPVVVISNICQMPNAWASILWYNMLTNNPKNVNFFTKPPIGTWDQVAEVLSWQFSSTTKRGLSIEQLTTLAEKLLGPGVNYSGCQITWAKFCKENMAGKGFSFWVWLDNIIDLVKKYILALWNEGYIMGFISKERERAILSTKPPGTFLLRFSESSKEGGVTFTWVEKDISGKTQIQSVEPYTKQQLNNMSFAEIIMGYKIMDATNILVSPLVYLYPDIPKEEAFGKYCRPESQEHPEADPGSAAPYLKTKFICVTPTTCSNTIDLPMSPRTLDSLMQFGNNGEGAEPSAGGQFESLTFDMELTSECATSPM
# Sequence of Protein cereblon/Signal transducer and activator of transcription 3 (Q96SW2 whole entry): as the sequence (Q96SW2 whole entry) above
SMILES,DC50 [1],DC50 [2]
CCN1CC[C@H]2CC[C@@H](C(=O)N[C@@H](CCC(N)=O)C(=O)N[C@@H](Cc3ccc(NS(=O)(=O)c4ccc(C)cc4)cc3)C(=O)N3CCC(CCC#Cc4cccc5c4CN(C4CCC(=O)NC4=O)C5=O)CC3)N2C(=O)[C@@H](NC(=O)c2cc3cc(C(F)(F)P(=O)(O)O)ccc3s2)C1 (some centres not stated),< 250 nM,250 nM
CCN1CC[C@H]2CC[C@@H](C(=O)N[C@@H](CNC(N)=O)C(=O)N[C@@H](Cc3ccc(C(C)(C)C)cc3)C(=O)N3CCC(CCC#Cc4cccc5c4CN(C4CCC(=O)NC4=O)C5=O)CC3)N2C(=O)[C@@H](NC(=O)c2cc3cc(C(F)(F)P(=O)(O)O)ccc3s2)C1 (some centres not stated),< 250 nM,> 1000 nM
CCN1CC[C@H]2CC[C@@H](C(=O)N[C@@H](CCC(N)=O)C(=O)N[C@@H](Cc3ccc(S(=O)(=O)c4ccccc4)cc3)C(=O)N3CCC(CCC#Cc4cccc5c4CN(C4CCC(=O)NC4=O)C5=O)CC3)N2C(=O)[C@@H](NC(=O)c2cc3cc(C(F)(F)P(=O)(O)O)ccc3s2)C1 (some centres not stated),< 250 nM,250 nM
CC(C)(C)c1ccc(C[C@H](NC(=O)[C@H](CCC(N)=O)NC(=O)[C@@H]2CC[C@@H]3CCN(CC(F)F)C[C@H](NC(=O)c4cc5cc(C(F)(F)P(=O)(O)O)ccc5s4)C(=O)N32)C(=O)N2CCC(CCC#Cc3cccc4c3CN(C3CCC(=O)NC3=O)C4=O)CC2)cc1 (some centres not stated),< 250 nM,< 250 nM
CCN1CC[C@H]2CC[C@@H](C(=O)N[C@@H](CCC(N)=O)C(=O)N[C@@H](Cc3ccc(S(=O)(=O)C4CC4)cc3)C(=O)N3CCC(CCC#Cc4cccc5c4CN(C4CCC(=O)NC4=O)C5=O)CC3)N2C(=O)[C@@H](NC(=O)c2cc3cc(C(F)(F)P(=O)(O)O)ccc3s2)C1 (some centres not stated),< 250 nM,500 nM
COC(=O)N1CC[C@H]2CC[C@@H](C(=O)N[C@@H](CCC(N)=O)C(=O)N[C@@H](Cc3ccc(C(C)(C)C)cc3)C(=O)N3CCC(CCC#Cc4cccc5c4CN(C4CCC(=O)NC4=O)C5=O)CC3)N2C(=O)[C@@H](NC(=O)c2cc3cc(C(F)(F)P(=O)(O)O)ccc3s2)C1 (some centres not stated),< 250 nM,250 nM
